Test results: ChEMBL document CHEMBL4699491, “Identification of TNO155, an Allosteric SHP2 Inhibitor for the Treatment of Cancer” (J Med Chem, 2020)
Converted amounts (≈) assume the structure as drawn.

Legend:
KYSE-520 cell line = test: Antiproliferative activity against human KYSE-520 cells; format: functional, cell-based
[1] = Toxicity in mouse 3T3 cells under irradiation by NRU phototoxicity test; format: cell-based
[2] = target: T1, Tyrosine-protein phosphatase non-receptor type 11 (Homo sapiens, UniProt Q06124)
T1 sequence (Q06124 whole entry): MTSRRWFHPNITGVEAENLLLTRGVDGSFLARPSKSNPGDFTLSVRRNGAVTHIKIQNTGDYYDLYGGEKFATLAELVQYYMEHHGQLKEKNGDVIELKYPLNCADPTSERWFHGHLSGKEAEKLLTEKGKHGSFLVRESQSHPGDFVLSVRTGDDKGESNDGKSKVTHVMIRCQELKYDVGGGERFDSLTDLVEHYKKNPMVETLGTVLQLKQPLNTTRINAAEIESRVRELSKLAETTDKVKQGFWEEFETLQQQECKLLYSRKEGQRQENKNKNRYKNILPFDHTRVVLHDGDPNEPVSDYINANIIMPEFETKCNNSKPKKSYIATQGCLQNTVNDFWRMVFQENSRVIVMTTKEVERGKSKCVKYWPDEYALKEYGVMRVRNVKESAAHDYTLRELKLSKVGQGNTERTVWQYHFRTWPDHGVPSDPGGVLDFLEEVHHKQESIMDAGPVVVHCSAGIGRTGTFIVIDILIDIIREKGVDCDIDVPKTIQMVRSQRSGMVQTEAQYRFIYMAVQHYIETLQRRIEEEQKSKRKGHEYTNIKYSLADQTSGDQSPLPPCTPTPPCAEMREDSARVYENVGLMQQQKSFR
Description: Allosteric inhibition of human SHP2 in human KYSE-520 cells assessed as reduction in ERK1/2 phosphorylation by fluorescence based assay

[3] = target: Voltage-gated inwardly rectifying potassium channel KCNH2 (Homo sapiens, UniProt Q12809)
Sequence of Voltage-gated inwardly rectifying potassium channel KCNH2 (Q12809 whole entry): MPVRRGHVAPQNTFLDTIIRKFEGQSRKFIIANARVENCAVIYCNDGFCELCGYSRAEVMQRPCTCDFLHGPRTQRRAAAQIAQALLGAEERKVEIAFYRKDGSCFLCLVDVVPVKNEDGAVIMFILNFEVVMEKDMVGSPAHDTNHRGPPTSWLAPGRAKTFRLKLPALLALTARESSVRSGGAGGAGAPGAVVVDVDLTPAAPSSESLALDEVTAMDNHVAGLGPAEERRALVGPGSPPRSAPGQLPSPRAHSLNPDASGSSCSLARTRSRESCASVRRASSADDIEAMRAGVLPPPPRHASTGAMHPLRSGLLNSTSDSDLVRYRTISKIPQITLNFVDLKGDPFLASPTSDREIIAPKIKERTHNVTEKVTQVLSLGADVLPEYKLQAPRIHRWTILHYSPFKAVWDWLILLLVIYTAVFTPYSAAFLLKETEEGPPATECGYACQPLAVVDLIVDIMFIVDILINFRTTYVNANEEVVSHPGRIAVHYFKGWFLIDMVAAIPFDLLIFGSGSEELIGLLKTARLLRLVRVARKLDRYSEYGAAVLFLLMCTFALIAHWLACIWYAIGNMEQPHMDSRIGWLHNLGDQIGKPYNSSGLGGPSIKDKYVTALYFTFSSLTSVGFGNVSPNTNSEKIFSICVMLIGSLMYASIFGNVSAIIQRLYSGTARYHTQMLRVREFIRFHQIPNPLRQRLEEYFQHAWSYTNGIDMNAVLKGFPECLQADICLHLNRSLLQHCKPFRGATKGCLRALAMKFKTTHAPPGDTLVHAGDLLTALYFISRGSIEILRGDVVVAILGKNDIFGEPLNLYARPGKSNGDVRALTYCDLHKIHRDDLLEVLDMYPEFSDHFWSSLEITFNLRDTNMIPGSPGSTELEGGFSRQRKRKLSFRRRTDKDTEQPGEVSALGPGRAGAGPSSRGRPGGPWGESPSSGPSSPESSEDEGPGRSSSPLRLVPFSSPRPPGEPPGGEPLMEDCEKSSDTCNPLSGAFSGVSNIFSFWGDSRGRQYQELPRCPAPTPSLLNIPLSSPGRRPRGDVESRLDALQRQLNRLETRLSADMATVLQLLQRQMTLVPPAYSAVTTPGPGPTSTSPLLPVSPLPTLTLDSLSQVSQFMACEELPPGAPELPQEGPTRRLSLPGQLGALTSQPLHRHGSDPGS
Description: Inhibition of human ERG by Q-patch assay

physchem [4] = conditions: aqueous, pH 6.8
Description: Aqueous solubility of the compound at pH 6.8

physchem [5] = conditions: octanol/water
Description: Lipophilicity, logP of the compound

physchem [6] = conditions: octanol/water; remark: listed apart in the source
Description: Distribution coefficient, logD of the compound

[7] = target: T2, Tyrosine-protein phosphatase non-receptor type 11 (Homo sapiens) (UniProt Q06124); conditions: filed as negative allosteric modulator
T2 sequence (whole entry): T1 sequence (Q06124 whole entry)

[8] = target: T1, Tyrosine-protein phosphatase non-receptor type 11; test: Allosteric inhibition of 6x-histidine tagged human SHP2 (Met1-L525 residues) expressed in Escherichia coli BL21 Star (DE3) using IRS1_pY1172(dPEG8)[…] incubated for 30 mins by fluorescence based DIFMUP assay

SMILES | IC50 (KYSE-520 cell line; kyse-520) [nM] | IC50 [2] [nM] | IC50 [3] [nM] | solubility (physchem [4]) [µM] | logP (physchem [5]) | logD (physchem [6]) | IC50 (KYSE-520 cell line; Homo sapiens, KYSE-520) [nM] | other results
CC1(N)CCN(c2cnc(Sc3cccc(Cl)c3Cl)c(N)n2)CC1 | 4070 | 195 | 2800 | 7 (≈ 2.69 µg/mL) | 3.6 | 1.1 | – | IC50 [1]: 16200 nM
Nc1nccc(Sc2cnc(N3CCC4(CCC[C@H]4N)CC3)cn2)c1Cl | – | – | – | – | – | – | 87 | –
CC1(CN)CCN(c2cnc(-c3cccc(Cl)c3Cl)c(N)n2)CC1 | – | – | – | – | – | – | 5540 | –
Nc1nc2ccc(Sc3cccc(Cl)c3Cl)nc2[nH]1 | – | – | – | – | – | – | – | ΔTm [7]: 1.5 °C
C[C@H]1OCC2(CCN(c3cnc(Sc4ccnc(N)c4Cl)c(N)n3)CC2)[C@@H]1N | 740 | – | – | 382 (≈ 161 µg/mL) | – | – | – | –
CC1(CN)CCN(c2cnc(Sc3cccc(Cl)c3Cl)c(N)n2)CC1 | 2670 | 88 | 2400 | 109 (≈ 43.4 µg/mL) | 4.3 | 2.5 | – | IC50 [8]: 17 nM
CC1(N)CCN(c2cnc(Sc3ccccc3Cl)c(N)n2)CC1 | 8140 | 251 | – | – | – | – | – | –
CC1(CN)CCN(c2cnc(Sc3ccnc(N)c3Cl)c(N)n2)CC1 | – | 123 | > 30000 | 437 (≈ 166 µg/mL) | 2 | -0.9 | 851 | –
CC1(CN)CCN(c2cnc(Sc3cccc(N)c3Cl)c(N)n2)CC1 | – | 89 | – | – | – | – | – | –
Nc1nc(N2CCC3(CCC[C@H]3N)CC2)cnc1Sc1cccnc1C(F)(F)F | – | – | – | – | – | – | 1160 | –
Nc1nc(N2CCC3(CC2)COC[C@H]3N)cnc1Sc1ccnc(N)c1Cl | – | 99 | > 25000 | 787 (≈ 321 µg/mL) | 1.1 | 0.2 | 665 | –
